Literature values as cited in Sander's compilation of Henry's law constants.

Test: Henry solubility constant Hcp at 298.15 K (mol/(m3 Pa))
Details: cited value
[1] = reference: Burkholder et al. (2015)
[2] = reference: Burkholder et al. (2019)
[3] = reference: Sander et al. (2006)
[4] = reference: Sander et al. (2011)
[5] = reference: Gaffney and Senum (1984)
[6] = reference: Fogg and Sangster (2003)
[7] = reference: Barcelo and Hennion (1997)
[8] = reference: Mackay et al. (1992b)

SMILES: CCC[N+](=O)[O-] [1-nitropropane]
- Henry solubility constant Hcp (reference: Brockbank (2013)): 0.14
- Henry solubility constant Hcp [1]: 0.13
- Henry solubility constant Hcp [2]: 0.13
- Henry solubility constant Hcp [3]: 0.13
- Henry solubility constant Hcp [4]: 0.13

SMILES: CCCOC(=O)c1ccccc1C(=O)OCCC [dipropyl phthalate]
- Henry solubility constant Hcp (reference: Brockbank (2013)): 22

SMILES: FOF [difluorine monoxide]
- Henry solubility constant Hcp (reference: Schäfer and Lax (1962)): 2.9e-05

SMILES: O=C(O)C(Br)(Br)Br [tribromoethanoic acid]
- Henry solubility constant Hcp [1]: 3000
- Henry solubility constant Hcp [2]: 3000
- Henry solubility constant Hcp [4]: 3000

SMILES: Cc1ccccn1 [2-methylpyridine]
- Henry solubility constant Hcp (reference: Brockbank (2013)): 0.98

SMILES: CC(=O)O[O] [peroxyacetyl radical]
- Henry solubility constant Hcp [1]: < 0.00099
- Henry solubility constant Hcp [2]: < 0.00099
- Henry solubility constant Hcp [3]: < 0.00099
- Henry solubility constant Hcp [4]: < 0.00099

SMILES: c1ccc(-c2ccccc2)cc1 [biphenyl]
- Henry solubility constant Hcp (reference: Brockbank (2013)): 0.036

SMILES: Cc1ccccc1 [methylbenzene]
- Henry solubility constant Hcp (reference: Brockbank (2013)): 0.0019
- Henry solubility constant Hcp (reference: Goldstein (1982)): 0.0015
- Henry solubility constant Hcp (reference: McAuliffe (1971)): 0.0015

SMILES: Cc1ccc(O)cc1 [1-hydroxy-4-methylbenzene]
- Henry solubility constant Hcp (reference: Brockbank (2013)): 13
- Henry solubility constant Hcp [5]: 9.9
- Henry solubility constant Hcp (reference: Howard (1989)): 10

SMILES: [Br][Hg][Br] [mercury dibromide]
- Henry solubility constant Hcp (reference: Kanefke (2008)): 960

SMILES: c1ccc2c(c1)Cc1ccccc1-2 [2,3-benzindene]
- Henry solubility constant Hcp (reference: Brockbank (2013)): 0.13
- Henry solubility constant Hcp [6]: 0.11
- Henry solubility constant Hcp (reference: Goldstein (1982)): 0.084
- Henry solubility constant Hcp (reference: HSDB (2015)): 0.099
- Henry solubility constant Hcp (reference: McCarty (1980)): 0.047

SMILES: CN [methanamine]
- Henry solubility constant Hcp [1]: 0.89
- Henry solubility constant Hcp [2]: 0.89

SMILES: Fc1c(F)c(F)c(F)c(F)c1F [hexafluorobenzene]
- Henry solubility constant Hcp (reference: Brockbank (2013)): 0.0003

SMILES: CCCC(=O)CCC [4-heptanone]
- Henry solubility constant Hcp (reference: Brockbank (2013)): 0.051

SMILES: CCCCCCl [1-chloropentane]
- Henry solubility constant Hcp (reference: Brockbank (2013)): 0.00041

SMILES: C=CCCC [1-pentene]
- Henry solubility constant Hcp (reference: Brockbank (2013)): 3e-05

SMILES: C=CCl [chloroethene]
- Henry solubility constant Hcp (reference: Brockbank (2013)): 0.00043
- Henry solubility constant Hcp [1]: 0.00038
- Henry solubility constant Hcp [2]: 0.00038

SMILES: CCCc1ccccc1 [propylbenzene]
- Henry solubility constant Hcp (reference: Brockbank (2013)): 0.00091

SMILES: CCCCC(O)(Cn1cncn1)c1ccc(Cl)cc1Cl (stereo unspecified) [hexaconazole]
- Henry solubility constant Hcp [7]: 28

SMILES: NCl [chloramine]
- Henry solubility constant Hcp [1]: 0.86
- Henry solubility constant Hcp [2]: 0.86
- Henry solubility constant Hcp [3]: 0.86
- Henry solubility constant Hcp [4]: 0.86

SMILES: CCCC(=O)OCCC(C)C [3-methylbutyl butanoate]
- Henry solubility constant Hcp (reference: Brockbank (2013)): 0.011

SMILES: CCC(C)n1c(=O)[nH]c(C)c(Br)c1=O (stereo unspecified) [bromacil]
- Henry solubility constant Hcp [7]: 5.2

SMILES: CCc1ccccc1 [ethylbenzene]
- Henry solubility constant Hcp (reference: Brockbank (2013)): 0.0013
- Henry solubility constant Hcp [6]: 0.0014
- Henry solubility constant Hcp (reference: Goldstein (1982)): 0.0016

SMILES: CCOC(C)(C)C [ethyl tert-butyl ether]
- Henry solubility constant Hcp (reference: Brockbank (2013)): 0.0072

SMILES: CCCN(CCC)c1c([N+](=O)[O-])cc(C(F)(F)F)cc1[N+](=O)[O-] [trifluralin]
- Henry solubility constant Hcp [7]: 0.0025
- Henry solubility constant Hcp (reference: HSDB (2015)): 0.096

SMILES: Nc1c(Cl)c(Cl)nc(C(=O)O)c1Cl [picloram]
- Henry solubility constant Hcp [7]: 290

SMILES: CCOC(=O)C(C)C [ethyl 2-methylpropanoate]
- Henry solubility constant Hcp (reference: Brockbank (2013)): 0.015

SMILES: CC1CCCCC1 [methylcyclohexane]
- Henry solubility constant Hcp (reference: Brockbank (2013)): 2.6e-05

SMILES: c1ccc2c(c1)ccc1c3ccccc3ccc21 [chrysene]
- Henry solubility constant Hcp (reference: Brockbank (2013)): 15
- Henry solubility constant Hcp (reference: Petrasek et al. (1983)): 6.6

SMILES: O=[N+]([O-])c1cccc(O)c1 [3-nitrophenol]
- Henry solubility constant Hcp [5]: 4900

SMILES: CCCCC(C)=O [2-hexanone]
- Henry solubility constant Hcp (reference: Brockbank (2013)): 0.11
- Henry solubility constant Hcp (reference: Howard (1993)): 0.1

SMILES: CCCCC(C)C [2-methylhexane]
- Henry solubility constant Hcp (reference: Brockbank (2013)): 2.9e-06

SMILES: CC(Cc1ccc(C(C)(C)C)cc1)CN1C[C@@H](C)O[C@@H](C)C1 (stereo partly specified) [fenpropimorph]
- Henry solubility constant Hcp [7]: 0.062

SMILES: CCCCCO [1-pentanol]
- Henry solubility constant Hcp (reference: Brockbank (2013)): 0.86
- Henry solubility constant Hcp (reference: Dohnal et al. (2006)): 1

SMILES: Oc1ccccc1Cl [2-hydroxychlorobenzene]
- Henry solubility constant Hcp (reference: Goldstein (1982)): 1.2
- Henry solubility constant Hcp (reference: Howard (1989)): 18

SMILES: CCCN(CCC)C(=O)SCC [S-ethyl dipropylthiocarbamate]
- Henry solubility constant Hcp [7]: 0.01

SMILES: O=C=S [carbon oxide sulfide]
- Henry solubility constant Hcp [1]: 0.0002
- Henry solubility constant Hcp [2]: 0.0002
- Henry solubility constant Hcp [3]: 0.0002
- Henry solubility constant Hcp [4]: 0.0002

SMILES: O=S=O [sulfur dioxide]
- Henry solubility constant Hcp (reference: Beilke and Gravenhorst (1978)): 0.012
- Henry solubility constant Hcp [1]: 0.013
- Henry solubility constant Hcp [2]: 0.013
- Henry solubility constant Hcp (reference: Edwards et al. (1978)): 0.012
- Henry solubility constant Hcp (reference: Maahs (1982)): 0.012
- Henry solubility constant Hcp (reference: Pandis and Seinfeld (1989)): 0.012
- Henry solubility constant Hcp (reference: Rodríguez-Sevilla et al. (2001)): 0.012
- Henry solubility constant Hcp [3]: 0.013
- Henry solubility constant Hcp [4]: 0.013
- Henry solubility constant Hcp (reference: Yoo et al. (1986)): 0.012
- Henry solubility constant Hcp (reference: Young (1983)): 0.013

SMILES: CCC(=O)OC [methyl propanoate]
- Henry solubility constant Hcp (reference: Brockbank (2013)): 0.058

SMILES: CCOP(=S)(OCC)OP(=S)(OCC)OCC [sulfotep]
- Henry solubility constant Hcp [7]: 0.0099

SMILES: CCCCCc1ccccc1 [pentylbenzene]
- Henry solubility constant Hcp (reference: Brockbank (2013)): 0.0006

SMILES: C=CCCCCCC [1-octene]
- Henry solubility constant Hcp (reference: Brockbank (2013)): 1.6e-05

SMILES: CN1CCCC1=O [N-methyl-2-pyrrolidone]
- Henry solubility constant Hcp (reference: Brockbank (2013)): 3100

SMILES: C(=C\c1ccccc1)/c1ccccc1 [(E)-stilbene]
- Henry solubility constant Hcp [8]: 0.025

SMILES: CCCCCCC(=O)CC [3-nonanone]
- Henry solubility constant Hcp (reference: Brockbank (2013)): 0.051

SMILES: CCC(C)(C)OC [2-methoxy-2-methylbutane]
- Henry solubility constant Hcp (reference: Brockbank (2013)): 0.0097

SMILES: CC(C)C(C)C [2,3-dimethylbutane]
- Henry solubility constant Hcp (reference: Brockbank (2013)): 8e-06

SMILES: CN(C)N=O [N-nitrosodimethylamine]
- Henry solubility constant Hcp [1]: 3.9
- Henry solubility constant Hcp [2]: 3.9
- Henry solubility constant Hcp (reference: Mackay et al. (1995)): 0.3

SMILES: N#Cc1c(Cl)c(Cl)c(Cl)c(C#N)c1Cl [2,4,5,6-tetrachloro-1,3-dicyanobenzene]
- Henry solubility constant Hcp (reference: MacBean (2012b)): 39

SMILES: COC(=O)C(C)C [methyl 2-methylpropanoate]
- Henry solubility constant Hcp (reference: Brockbank (2013)): 0.026

SMILES: OCl [hypochlorous acid]
- Henry solubility constant Hcp [1]: 6.5
- Henry solubility constant Hcp [2]: 6.5
- Henry solubility constant Hcp (reference: Huthwelker et al. (1995)): 6.5
- Henry solubility constant Hcp [3]: 6.5
- Henry solubility constant Hcp [4]: 6.5

SMILES: O=C1C2CC=CCC2C(=O)N1SC(Cl)(Cl)Cl (stereo unspecified) [captan]
- Henry solubility constant Hcp [7]: 0.016

SMILES: Cc1cc(C)cc(C)c1 [1,3,5-trimethylbenzene]
- Henry solubility constant Hcp (reference: Brockbank (2013)): 0.0012

SMILES: [He] [helium]
- Henry solubility constant Hcp (reference: Clever (1979a)): 3.8e-06
- Henry solubility constant Hcp (reference: Himmelblau (1960)): 3.7e-06

SMILES: CC[N+](=O)[O-] [nitroethane]
- Henry solubility constant Hcp (reference: Brockbank (2013)): 0.21
- Henry solubility constant Hcp [1]: 0.21
- Henry solubility constant Hcp [2]: 0.21
- Henry solubility constant Hcp [5]: 0.21
- Henry solubility constant Hcp [3]: 0.21
- Henry solubility constant Hcp [4]: 0.21

SMILES: COC [dimethyl ether]
- Henry solubility constant Hcp (reference: Hine and Weimar (1965)): 0.0098

SMILES: CC(C)CC(C)O (stereo unspecified) [4-methyl-2-pentanol]
- Henry solubility constant Hcp (reference: Brockbank (2013)): 0.22

SMILES: CCCCCCCCc1ccccc1 [octylbenzene]
- Henry solubility constant Hcp (reference: Brockbank (2013)): 0.00018

SMILES: C1=CCCCC1 [cyclohexene]
- Henry solubility constant Hcp (reference: Brockbank (2013)): 0.00029

SMILES: c1ccc(Cc2ccccc2)cc1 [diphenylmethane]
- Henry solubility constant Hcp [8]: 1

SMILES: N#CCCCC#N [pentanedinitrile]
- Henry solubility constant Hcp (reference: Plyasunov et al. (2006)): 780

SMILES: CCC(C)(C)C [2,2-dimethylbutane]
- Henry solubility constant Hcp (reference: Brockbank (2013)): 5.7e-06

SMILES: CCSC [ethyl methyl sulfide]
- Henry solubility constant Hcp [1]: 0.0042
- Henry solubility constant Hcp [2]: 0.0042

SMILES: OI [hypoiodous acid]
- Henry solubility constant Hcp (reference: Palmer et al. (1985)): > 4.1

SMILES: Clc1cccc(Cl)c1Cl [1,2,3-trichlorobenzene]
- Henry solubility constant Hcp (reference: Brockbank (2013)): 0.0062
